The test system of this experiment is clot lysis (fibrinolysis) in diluted human citrated plasma, tPA-induced. Briefly: Plasma-based clot lysis assay (5%). The format is biochemical. Conditions: human citrated platelet-poor plasma 5%, fibrinogen 3 μM, CaCl2 10 mM, tPA 0.2 nM, 37° C., OD at 405 nm. The procedure, abridged: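 Clot formation and breakdown triggered by CaCl2 (10 mM final) plus tPA (0.2 nM final) at 37° C, in 5% diluted human plasma supplemented with 3 μM fibrinogen (HEPES/NaCl/Brij buffer, pH 7). IC50 obtained from time courses relative to a blank control.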

Counter-ions that a name gives are not always drawn.

Usually IC50 stands for the point on the concentration scale where inhibition reaches its midpoint. Low values mean higher potency, high ones lower potency.

`CCc1csc(-c2cnn3c(C4CCNCC4)cc(=O)[nH]c23)n1` [Example 308, 3-(4-ethyl-1,3-thiazol-2-yl)-7-(piperidin-4-yl)pyrazolo[1,5-a]pyrimidin-5(4H)-one hydrochloride] yielded a half-inhibitory concentration (IC50) of 11 nM.

In turn, `Cc1ccc(-c2csc(-c3cnn4c(C5CCNCC5)cc(=O)[nH]c34)n2)cc1` [Example 309, 3-[4-(4-methylphenyl)-1,3-thiazol-2-yl]-7-(piperidin-4-yl)pyrazolo[1,5-a]pyrimidin-5(4H)-one hydrochloride] displayed a concentration for half-maximal inhibition (IC50) of 41 nM.

Regarding `O=c1cc(C2CCNCC2)n2ncc(-c3nc(C4CC4)cs3)c2[nH]1` [Example 311, 3-(4-cyclopropyl-1,3-thiazol-2-yl)-7-(piperidin-4-yl)pyrazolo[1,5-a]pyrimidin-5(4H)-one hydrochloride], the half-maximal inhibitory concentration (IC50) came to 18 nM. This IC50 is about 2.3-fold lower than that of the compound before.

On to `Cc1ccc(-c2csc(-c3cnn4c(C5CCNCC5)cc(=O)[nH]c34)n2)c(C)c1` [Example 312, 3-[4-(2,4-dimethylphenyl)-1,3-thiazol-2-yl]-7-(piperidin-4-yl)pyrazolo[1,5-a]pyrimidin-5(4H)-one hydrochloride], for which 22 nM corresponded to half-maximal inhibition (IC50).

For the compound `Cc1cc(CN(C)C(=O)c2cnn3c(C4CCNCC4)cc(=O)[nH]c23)no1` [Example 316, N-methyl-N-[(5-methyl-1,2-oxazol-3-yl)methyl]-5-oxo-7-(piperidin-4-yl)-4,5-dihydropyrazolo[1,5-a]pyrimidine-3-carboxamide hydrochloride], inhibition was half-maximal at 27 nM (IC50).

Take `CCNC(=O)c1c(C)nn2c(C3CCNCC3)cc(=O)[nH]c12` [Example 317, N-ethyl-2-methyl-5-oxo-7-(piperidin-4-yl)-4,5-dihydropyrazolo[1,5-a]pyrimidine-3-carboxamide hydrochloride]: the half-maximal inhibitory concentration (IC50) worked out at 29 nM.

Regarding `CN(Cc1cccnc1)C(=O)c1cnn2c(C3CCNCC3)cc(=O)[nH]c12` [Example 318, N-methyl-5-oxo-7-(piperidin-4-yl)-N-(pyridin-3-ylmethyl)-4,5-dihydropyrazolo[1,5-a]pyrimidine-3-carboxamide hydrochloride], half-maximal inhibition (IC50) required 45 nM.

Regarding `Cc1nn2c(C3CCNCC3)cc(=O)[nH]c2c1C(=O)N(C)C` [Example 319, N,N,2-trimethyl-5-oxo-7-(piperidin-4-yl)-4,5-dihydropyrazolo[1,5-a]pyrimidine-3-carboxamide hydrochloride], the midpoint of inhibition, the IC50, lay at 75 nM.

Turning to `C[C@@H]1CCN(C(=O)c2cnn3c(C4CCNCC4)cc(=O)[nH]c23)C1` [Example 321, 3-{[(3R)-3-methylpyrrolidin-1-yl]carbonyl}-7-(piperidin-4-yl)pyrazolo[1,5-a]pyrimidin-5(4H)-one hydrochloride], the half-maximal inhibitory concentration (IC50) amounted to 82 nM.

The compound `O=C(c1cnn2c(C3CCNCC3)cc(=O)[nH]c12)N1CCCC1` [Example 322, 7-(piperidin-4-yl)-3-(pyrrolidin-1-ylcarbonyl)pyrazolo[1,5-a]pyrimidin-5(4H)-one hydrochloride] displayed a 50% inhibitory concentration (IC50) of 36 nM.

As for `Cc1nn2c(C3CCNCC3)cc(=O)[nH]c2c1C(=O)O` [Example 323, 2-methyl-5-oxo-7-(piperidin-4-yl)-4,5-dihydropyrazolo[1,5-a]pyrimidine-3-carboxylic acid hydrochloride], half-maximal inhibition (IC50) was put at 460 nM.

As to `CC1(C)CCN(Cc2cnn3c(C4CCNCC4)cc(=O)[nH]c23)C1` [Example 324, 3-[(3,3-dimethylpyrrolidin-1-yl)methyl]-7-(piperidin-4-yl)pyrazolo[1,5-a]pyrimidin-5(4H)-one hydrochloride], the IC50 was determined as 150 nM.

`O=C(c1cnn2c(C3CCNCC3)cc(=O)[nH]c12)N1CC(F)(F)C1` [Example 326, 3-[(3,3-difluoroazetidin-1-yl)carbonyl]-7-(piperidin-4-yl)pyrazolo[1,5-a]pyrimidin-5 (4H)-one hydrochloride] returned a half-maximal inhibitory concentration (IC50) of 12 nM. This IC50 lies about 12-fold lower than the previous one.

With `O=C(c1cnn2c(C3CCNCC3)cc(=O)[nH]c12)N1CCCCC1` [Example 327, 7-(piperidin-4-yl)-3-(piperidin-1-ylcarbonyl)pyrazolo[1,5-a]pyrimidin-5(4H)-one hydrochloride], half-maximal inhibition (IC50) required 9 nM.

The compound `CC1(C)CN(Cc2cnn3c(C4CCNCC4)cc(=O)[nH]c23)CCO1` [Example 330, 3-[(2,2-dimethylmorpholin-4-yl)methyl]-7-(piperidin-4-yl)pyrazolo[1,5-a]pyrimidin-5(4H)-one hydrochloride] came in with an IC50 of 110 nM. Compared with the last compound, the IC50 is about 12-fold higher.

The compound `CC(C)(C)c1cnc(-c2cnn3c(C4CCNCC4)cc(=O)[nH]c23)o1` [Example 332, 3-(5-tert-butyl-1,3-oxazol-2-yl)-7-(piperidin-4-yl)pyrazolo[1,5-a]pyrimidin-5 (4H)-one hydrochloride] came in with an IC50 of 26 nM.

In turn, `O=c1cc(C2CCNCC2)n2ncc(-c3nc(C4CCCCC4)cs3)c2[nH]1` [Example 335, 3-(4-cyclohexyl-1,3-thiazol-2-yl)-7-(piperidin-4-yl)pyrazolo[1,5-a]pyrimidin-5(4H)-one hydrochloride] came in with an IC50 of 9 nM.

`O=c1cc(C2CCNCC2)n2ncc(-c3nc(-c4ccccc4OC(F)F)cs3)c2[nH]1` [Example 337, 3-{4-[2-(difluoromethoxy)phenyl]-1,3-thiazol-2-yl}-7-(piperidin-4-yl)pyrazolo[1,5-a]pyrimidin-5(4H)-one hydrochloride] returned a half-inhibitory concentration (IC50) of 30 nM.

`Cc1nn2c(C3CCNCC3)cc(=O)[nH]c2c1-c1nnc(C(C)(C)C)o1` [Example 338, 3-(5-tert-butyl-1,3,4-oxadiazol-2-yl)-2-methyl-7-(piperidin-4-yl)pyrazolo[1,5-a]pyrimidin-5(4H)-one hydrochloride] displayed a half-inhibitory concentration (IC50) of 11 nM.

`Cc1noc(-c2c(C)nn3c(C4CCNCC4)cc(=O)[nH]c23)n1` [Example 339, 2-methyl-3-(3-methyl-1,2,4-oxadiazol-5-yl)-7-(piperidin-4-yl)pyrazolo[1,5-a]pyrimidin-5(4H)-one hydrochloride] had a half-maximal inhibitory concentration (IC50) of 28 nM.

The compound `Cc1nn2c(C3CCNCC3)cc(=O)[nH]c2c1-c1nc(C(F)(F)F)no1` [Example 341, 2-methyl-7-(piperidin-4-yl)-3-[3-(trifluoromethyl)-1,2,4-oxadiazol-5-yl]pyrazolo[1,5-a]pyrimidin-5(4H)-one hydrochloride] displayed a half-inhibitory concentration (IC50) of 34 nM. The IC50 values of the last two compounds are within 1.5-fold of each other.

`CN(C)Cc1cnn2c(C3CCNCC3)cc(=O)[nH]c12` [Example 342, 3-[(dimethylamino)methyl]-7-(piperidin-4-yl)pyrazolo[1,5-a]pyrimidin-5(4H)-one hydrochloride]: it took 170 nM to reach half-maximal inhibition (IC50).

Consider `O=c1cc(C2CCNCC2)n2ncc(CN3CCCC3)c2[nH]1` [Example 343, 7-(piperidin-4-yl)-3-(pyrrolidin-1-ylmethyl)pyrazolo[1,5-a]pyrimidin-5(4H)-one hydrochloride], for which the concentration for half-maximal inhibition (IC50) was found to be 130 nM. The IC50 values of the last two compounds are within 1.5-fold of each other.

As for `O=c1cc(C2CCNCC2)n2ncc(C3CC3)c2[nH]1` [Example 344, 3-cyclopropyl-7-(piperidin-4-yl)pyrazolo[1,5-a]pyrimidin-5(4H)-one hydrochloride], inhibition was half-maximal at 120 nM (IC50). This IC50 and that of the compound before are within 1.5-fold of each other.

On to `O=c1cc(C2CCNCC2)n2ncc(CN3CCS(=O)(=O)CC3)c2[nH]1` [Example 345, 3-[(1,1-dioxidothiomorpholin-4-yl)methyl]-7-(piperidin-4-yl)pyrazolo[1,5-a]pyrimidin-5 (4H)-one hydrochloride], for which the IC50 worked out at 120 nM.

For `Cc1nn2c(C3CCNCC3)cc(=O)[nH]c2c1-c1nc(-c2ccccc2OC(F)(F)F)no1` [Example 347, 2-methyl-7-(piperidin-4-yl)-3-{3-[2-(trifluoromethoxy)phenyl]-1,2,4-oxadiazol-5-yl}pyrazolo[1,5-a]pyrimidin-5(4H)-one hydrochloride], the concentration for half-maximal inhibition (IC50) is 28 nM.

Consider `CC(C)(C)C[C@@H]1C[C@H](c2cc(=O)[nH]c3c(-c4nc(-c5ccccc5F)no4)cnn23)CCN1` [Example 349, 7-[(2S,4R)-2-(2,2-dimethylpropyl)piperidin-4-yl]-3-[3-(2-fluorophenyl)-1,2,4-oxadiazol-5-yl]pyrazolo[1,5-a]pyrimidin-5(4H)-one hydrochloride], for which the 50% inhibitory concentration (IC50) is 21 nM.

`Cc1nn2c(C3CCNCC3)cc(=O)[nH]c2c1-c1nc(C2CCCCC2)no1` [Example 350, 3-(3-cyclohexyl-1,2,4-oxadiazol-5-yl)-2-methyl-7-(piperidin-4-yl)pyrazolo[1,5-a]pyrimidin-5(4H)-one hydrochloride]: the midpoint of inhibition, the IC50, lay at 20 nM.

In turn, `O=c1cc(C2CCNCC2)n2ncc(-c3nc(C(F)(F)F)cs3)c2[nH]1` [Example 351, 7-(piperidin-4-yl)-3-[4-(trifluoromethyl)-1,3-thiazol-2-yl]pyrazolo[1,5-a]pyrimidin-5 (4H)-one hydrochloride] registered an IC50 of 26 nM.

`O=C(OCCCF)c1cnn2c(C3CCNCC3)cc(=O)[nH]c12` [Example 352, 3-fluoropropyl 5-oxo-7-(piperidin-4-yl)-4,5-dihydropyrazolo[1,5-a]pyrimidine-3-carboxylate hydrochloride] displayed a half-maximal inhibitory concentration (IC50) of 44 nM. Compared with the last compound, the IC50 is about 1.7-fold higher.

In the case of `O=C(OCC(F)F)c1cnn2c(C3CCNCC3)cc(=O)[nH]c12` [Example 353, 2,2-difluoroethyl 5-oxo-7-(piperidin-4-yl)-4,5-dihydropyrazolo[1,5-a]pyrimidine-3-carboxylate hydrochloride], the IC50 came out at 28 nM.

Turning to `O=C(OCC(F)(F)F)c1cnn2c(C3CCNCC3)cc(=O)[nH]c12` [Example 354, 2,2,2-trifluoroethyl 5-oxo-7-(piperidin-4-yl)-4,5-dihydropyrazolo[1,5-a]pyrimidine-3-carboxylate hydrochloride], the IC50 came to 27 nM.

For `O=C(OCCC(F)(F)F)c1cnn2c(C3CCNCC3)cc(=O)[nH]c12` [Example 355, 3,3,3-trifluoropropyl 5-oxo-7-(piperidin-4-yl)-4,5-dihydropyrazolo[1,5-a]pyrimidine-3-carboxylate hydrochloride], the half-inhibitory concentration (IC50) turned out to be 27 nM. This counts as double-digit nanomolar.

The compound `O=C(OC1CCC1)c1cnn2c(C3CCNCC3)cc(=O)[nH]c12` [Example 356, Cyclobutyl 5-oxo-7-(piperidin-4-yl)-4,5-dihydropyrazolo[1,5-a]pyrimidine-3-carboxylate hydrochloride] registered a concentration for half-maximal inhibition (IC50) of 23 nM.

Values taken from patent US10118930B2, “Piperidinylpyrazolopyrimidinones and their use” (BAYER PHARMA AKTIENGESELLSCHAFT, priority 2015, dated 2018).
